Data on four compounds can be found in paper PMC11772769, “Selective cargo and membrane recognition by SNX17 regulates its interaction with Retriever” (EMBO Reports, 2024).

Substitutions are numbered along the chain they refer to. Read-outs that look alike come from different tables or passages of the source. Where no end group is shown, it is not given here.

Experiment [1] addresses T1, MBP-SNX17 WT (Homo sapiens, UniProt Q15036).
T1 construct: M protein marker, R Retriever complex, FL full-length; His (N, cleaved yes); made in house; host or cells: Escherichia coli BL21(DE3)
T1 sequence (Q15036 1-470): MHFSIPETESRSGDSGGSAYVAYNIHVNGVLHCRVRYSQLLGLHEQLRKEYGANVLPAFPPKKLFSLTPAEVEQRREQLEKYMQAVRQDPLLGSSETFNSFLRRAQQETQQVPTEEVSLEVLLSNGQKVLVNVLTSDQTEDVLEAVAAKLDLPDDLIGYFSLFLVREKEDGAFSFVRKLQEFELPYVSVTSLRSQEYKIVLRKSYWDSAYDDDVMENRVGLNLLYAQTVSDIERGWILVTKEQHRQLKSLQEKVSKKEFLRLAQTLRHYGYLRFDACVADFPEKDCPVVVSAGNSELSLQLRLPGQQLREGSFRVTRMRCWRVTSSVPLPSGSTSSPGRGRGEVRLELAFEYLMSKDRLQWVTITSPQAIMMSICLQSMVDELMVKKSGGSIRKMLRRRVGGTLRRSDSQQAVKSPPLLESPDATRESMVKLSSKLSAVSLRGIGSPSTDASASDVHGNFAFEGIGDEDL
Briefly: Fluorescence anisotropy binding of 5-FAM peptides to MBP-SNX17 wild-type. The procedure: (§1) Lyophilized peptides were resuspended in 100 mM Hepes pH 8.0 at 5 mg/ml and further diluted in the assay buffer (50 mM Hepes pH 7.5, 300 mM NaCl, and 1 mM DTT). […] The mixture was incubated at 25 °C for at least 30 min and then transferred to 96 Flat Black plates. Fluorescence anisotropy was measured at 25 °C using Spark 10M Plate Reader (Tecan) with a 485/20 excitation filter and a 535/35 emission filter. The dissociation constants were calculated in GraphPad Prism by nonlinear regression fitting of the experimental data to a one-site total binding model. The final KD measurement is the mean of at least two independent experiments.

The target in experiment [2] is T2, VPS26C (Homo sapiens, UniProt O14972).
T2 construct: His-Sumo3 (N, cleaved yes); made in house; host or cells: Escherichia coli BL21(DE3)
Briefly: Fluorescence anisotropy binding of 5-FAM SNX17CT-18 to VPS26C. The following applies: 0.1 μM 5-FAM peptide, pH 7.5, 300 mM NaCl, 25 °C, two technical replicates (Fig. 3D). As for the experimental part: as §1
On the technique in general: Fluorescence polarisation rises when a labelled molecule tumbles more slowly, as on binding a larger partner.

Experiment [3] has as its target T3, VPS35L-VPS29 (Homo sapiens, UniProt Q7Z3J2+Q9UBQ0).
T3 construct: His (N, cleaved yes); made in house; host or cells: High Five insect cells (baculovirus)
The experiment can be described thus: Fluorescence anisotropy binding of 5-FAM SNX17CT-18 to VPS35L-VPS29. The following applies: 0.1 μM 5-FAM peptide, pH 7.5, 300 mM NaCl, 25 °C, two technical replicates (Fig. 3D). As for the experimental part:
as §1

For experiment [4], the target named is T4, VPS29 (Homo sapiens, UniProt Q9UBQ0).
T4 construct: GST (N, cleaved yes); made in house; host or cells: Escherichia coli BL21(DE3)
The experiment can be described thus: Fluorescence anisotropy binding of 5-FAM SNX17CT-18 to VPS29. The following applies: 0.1 μM 5-FAM peptide, pH 7.5, 300 mM NaCl, 25 °C, two technical replicates (Fig. 3D). As for the experimental part: as §1

The target of experiment [5] is T5, SNX17FERM-CT (amino acids 109-470) (Homo sapiens, UniProt Q15036).
T5 construct: His-Sumo3 (N, cleaved yes); made in house; host or cells: Escherichia coli BL21(DE3)
T5 sequence (Q15036 109-470): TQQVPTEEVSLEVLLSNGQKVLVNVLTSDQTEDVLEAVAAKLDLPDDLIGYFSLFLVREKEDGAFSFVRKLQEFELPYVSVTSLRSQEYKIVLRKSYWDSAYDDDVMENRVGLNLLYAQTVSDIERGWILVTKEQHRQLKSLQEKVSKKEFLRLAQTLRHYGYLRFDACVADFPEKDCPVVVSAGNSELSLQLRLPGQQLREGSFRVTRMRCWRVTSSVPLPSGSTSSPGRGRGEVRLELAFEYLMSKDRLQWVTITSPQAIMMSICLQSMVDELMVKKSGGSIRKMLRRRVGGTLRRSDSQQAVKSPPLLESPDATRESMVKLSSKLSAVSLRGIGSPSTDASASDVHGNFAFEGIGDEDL
Briefly: Fluorescence anisotropy binding of 5-FAM cargo peptides to SNX17FERM-CT. Particulars: read-out: KD SNX17FERM-CT. The procedure: as §1

Experiment [6] deals with T6, MBP-SNX17 L470G (Homo sapiens, UniProt Q15036, L470G).
T6 construct: M protein marker, R Retriever complex, FL full-length; His (N, cleaved yes); made in house; host or cells: Escherichia coli BL21(DE3)
T6 sequence (Q15036 1-470 L470G): T1 sequence (Q15036 1-470) with L470G
The experiment can be described thus: Fluorescence anisotropy binding of 5-FAM cargo peptides to MBP-SNX17 L470G. The procedure: as §1, with “The peptides used for binding assays were synthesized with an N-terminal 5-Carboxyfluorescein (FAM) and HPLC purified (≥95%) by GenScript. Lyophilized” for “Lyophilized”

Experiment [7] addresses T7, MBP-SNX17W321A (Homo sapiens, UniProt Q15036, W321A).
T7 construct: M protein marker, R Retriever complex, FL full-length; His (N, cleaved yes); made in house; host or cells: Escherichia coli BL21(DE3)
T7 sequence (Q15036 1-470 W321A): T1 sequence (Q15036 1-470) with W321A
Briefly: Fluorescence anisotropy binding of 5-FAM peptides to MBP-SNX17 W321A. The procedure: as §1

For experiment [8], the target named is MBP (Escherichia coli, UniProt P0AEX9). Briefly: Fluorescence anisotropy, MBP negative control. The class given is binding. The procedure:
as §1

Experiment [9] concerns the target T8, MBP-SNX17V380D (Homo sapiens, UniProt Q15036, V380D).
T8 construct: M protein marker, R Retriever complex, FL full-length; His (N, cleaved yes); made in house; host or cells: Escherichia coli BL21(DE3)
T8 sequence (Q15036 1-470 V380D): T1 sequence (Q15036 1-470) with V380D
The experiment can be described thus: Fluorescence anisotropy binding of 5-FAM peptides to MBP-SNX17 V380D. The procedure:
as §1

Take `CC[C@H](C)[C@H](NC(=O)CNC(=O)[C@H](CCC(=O)O)NC(=O)[C@H](Cc1ccccc1)NC(=O)[C@H](C)NC(=O)[C@H](Cc1ccccc1)NC(=O)[C@H](CC(N)=O)NC(=O)CNC(=O)[C@H](Cc1c[nH]cn1)NC(=O)[C@@H](NC(=O)[C@H](CC(=O)O)NC(=O)[C@H](CO)NC(=O)[C@H](C)NC(=O)c1ccc2c(c1)C(=O)OC21c2ccc(O)cc2Oc2cc(O)ccc21)C(C)C)C(=O)NCC(=O)N[C@@H](CC(=O)O)C(=O)N[C@@H](CCC(=O)O)C(=O)N[C@@H](CC(=O)O)C(=O)N[C@@H](CC(C)C)C(=O)O` [SNX17CT-18]: the “KD MBP-SNX17 WT” value in experiment [1] (fluorescence anisotropy, 0.1 μM 5-FAM peptide, pH 7.5, 300 mM NaCl, 25 °C, one-site total binding, Bmax fixed at 240, mean ± SD of three biological replicates (Fig. 4E)) is on record as “binds weakly”. The “KD VPS26C” value in [2] is listed as “no discernible binding”. Also, the “KD VPS35L-VPS29” value in experiment [3] is “weak interaction”. Moreover, the “KD VPS29” value in experiment [4] is “no discernible binding”.

On to KWDTGENPIYKSAV [ITGB1 P-14-mer], for which the Kd in [5] came to 72.5 µM.

For MNVEIGNPTYKMYE [LRP1 14-mer], the Kd in [6] was 2.8 ± 0.2 µM; in [1], 3 µM; in [7], over 32 µM; in [7] (read-out: KD MBP-SNX17W321A, fluorescence anisotropy, 5-FAM peptide, Bmax fixed at 240, replicate Y2 (Fig. 4E source data)), over 32 µM; in experiment [5] it was 2.23 µM; in experiment [8] (0.1 μM 5-FAM peptide, pH 7.5, 300 mM NaCl, 25 °C (Fig. EV3B), read-out: KD MBP (negative control)), over 32 µM. The Kd is over 32 µM in experiment [8] (5-FAM peptide, replicate Y1 (Fig. 4E source data), read-out: KD MBP); over 32 µM in experiment [8] (5-FAM peptide, replicate Y2 (Fig. 4E source data), read-out: KD MBP); over 32 µM in experiment [8] (5-FAM peptide, replicate Y3 (Fig. 4E source data), read-out: KD MBP); over 32 µM in experiment [9] (0.1 μM 5-FAM peptide, pH 7.5, 300 mM NaCl, 25 °C, one-site total binding, Bmax fixed at 240, three biological replicates (Fig. 4E)); over 32 µM in [9] (5-FAM peptide, Bmax fixed at 240, replicate Y1 (Fig. 4E source data), read-out: KD MBP-SNX17V380D); over 32 µM in [9] (5-FAM peptide, Bmax fixed at 240, replicate Y2 (Fig. 4E source data), read-out: KD MBP-SNX17V380D). For the same compound, the equilibrium dissociation constant (Kd) in experiment [9] (5-FAM peptide, Bmax fixed at 240, replicate Y3 (Fig. 4E source data), read-out: KD MBP-SNX17V380D) was over 32 µM.

QQNGYENPTYKFFE [APP 14-mer]: the Kd in experiment [5] turned out to be 19.1 µM.

Usually Kd stands for the free concentration of one partner at which half of the binding sites on the other are occupied at equilibrium, for simple one-to-one binding.
